Source: patent US20250163066A1, “PROTACs of MALT1” (TEGID THERAPEUTICS, INC., priority 2022, published 2025)

Columns and labels:
[1] = test system: IL-2 MALT1-dependent release in Jurkat cells; assay: cells; assay type: cell-based; details: Homo sapiens
Procedure, shortened: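 Jurkat cells (100,000/well, RPMI 1640 with 10% FBS, 37 °C, 5% CO2) were preincubated with compound or DMSO for 0.5-1 h, in duplicate. Stimulation used anti-CD3 (HIT3a) plus anti-CD28 antibodies for 24 h. IL-2 in supernatants was then measured by ELISA.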

MALT1 [2] = target: T1, MALT1 (Homo sapiens (Human), UniProt Q9UDY8); assay: MALT1 degradation in JeKo-1 cells (capillary Western blotting); assay type: cell-based; details: 48 h incubation, read-out: EC50 for MALT1 degradation
T1 sequence (Q9UDY8 whole entry): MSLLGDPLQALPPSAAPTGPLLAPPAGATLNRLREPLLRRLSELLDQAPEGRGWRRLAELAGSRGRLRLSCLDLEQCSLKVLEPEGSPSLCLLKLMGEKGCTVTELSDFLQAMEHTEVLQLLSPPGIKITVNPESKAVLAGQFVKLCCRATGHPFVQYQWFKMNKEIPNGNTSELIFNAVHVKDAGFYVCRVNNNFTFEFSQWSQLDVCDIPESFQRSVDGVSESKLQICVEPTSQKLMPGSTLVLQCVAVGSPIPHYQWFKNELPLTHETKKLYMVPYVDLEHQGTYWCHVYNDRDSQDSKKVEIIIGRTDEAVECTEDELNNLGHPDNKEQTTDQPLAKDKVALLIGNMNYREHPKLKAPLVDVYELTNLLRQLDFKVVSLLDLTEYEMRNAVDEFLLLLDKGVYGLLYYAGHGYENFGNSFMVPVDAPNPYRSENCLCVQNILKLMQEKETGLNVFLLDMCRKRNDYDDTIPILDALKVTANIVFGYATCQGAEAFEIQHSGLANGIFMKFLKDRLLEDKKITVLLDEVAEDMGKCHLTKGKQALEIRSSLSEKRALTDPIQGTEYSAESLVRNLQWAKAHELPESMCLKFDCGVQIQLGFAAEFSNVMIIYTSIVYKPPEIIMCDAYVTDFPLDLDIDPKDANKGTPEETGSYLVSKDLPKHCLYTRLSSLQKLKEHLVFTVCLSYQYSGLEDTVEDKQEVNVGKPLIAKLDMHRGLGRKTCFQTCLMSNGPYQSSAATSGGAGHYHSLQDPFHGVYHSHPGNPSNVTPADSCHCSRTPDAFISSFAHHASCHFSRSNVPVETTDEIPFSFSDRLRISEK
Protocol: JeKo-1 cells (ATCC, USA) were cultured in RPMI 1640 supplemented with 10% FBS at 37° C., 5% CO2 in a humidified cell culture incubator. 1 ml of cells (1*10^6 cells per well) was transferred to each well of a 24-well plate (Greiner, #662160). Then 40 μl/well 25× compound (or DMSO) were added. Cells were incubated with compound in a humidified cell culture incubator for 48 h. At the end of incubation, cell suspension was transferred from wells into 2 ml tubes (Greiner, #623201), centrifuged at 300 g for 5 min and the supernatant was discarded. Then cell pellets were washed with cooled PBS. Cell lysates were prepared by adding 40 μl of RIPA lysis buffer (ProteinSimple, #040-483) to the cell pellet. […] Next, protein concentration in cell lysates was determined by Pierce™ Coomassie (Bradford) Protein Assay Kit (Thermo Scientific, #23200) according to manufacturer's instructions.
Levels of MALT1, Bcl10 and CYLD proteins in prepared cell lysates were assessed in capillary Western blotting system Jess (JS-3030, ProteinSimple) using 12-230 kDa Separation Module (ProteinSimple #SM-W004), Anti-Mouse Detection Module (ProteinSimple #DM-002) and Anti-Rabbit Detection Module (ProteinSimple #DM-001) according to manufacturer's instructions. […] Beta-actin was used as a loading control detected by anti-beta-actin primary antibodies (RnD Systems, #MAB8929) at 1:100 dilution.

MALT1 [3] = target: T1, MALT1; assay: MALT1 enzymatic activity inhibition (fluorescence, Ac-LRSR-AMC substrate); assay type: biochemical; details: recombinant MALT1 1.5 ng/μl, Ac-LRSR-AMC 1 μM
Procedure, shortened: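 Recombinant human MALT1 (1.5 ng/μl final) preincubated 10 min at rt with compounds in 50 mM HEPES pH 7.2-7.4, 100 mM NaCl, 900 mM sodium citrate, 10 mM DTT; 1 μM Ac-LRSR-AMC then added. AMC fluorescence read at start and after 30 min 37 °C plus 30 min rt; difference gives signal, % inhibition fitted to IC50.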

EC50 ([1]; Jurkat cells stimulated with antiCD3/antiCD28 for 24 h, IL-2 ELISA, read-out: EC50, IL-2 MALT1-dependent release inhibition) [nM]	DC50 (MALT1 [2]) [nM]	EC50 (MALT1 [3]) [µM]	SMILES	CC50 ([1]; Jurkat, 24 h, read-out: CC50 (IL-2 MALT1-dependent release inhibition)) [nM]
500 to 1000	85	≤ 0.2	Cc1cc(NC(=O)Nc2cnc3ccnn3c2C2CCCO2)cnc1-c1noc(CCCCCC(=O)N2CCN(c3ccc4c(c3)CN(C3CCC(=O)NC3=O)C4=O)CC2)n1 (centres unmarked) [Compound 2, 1-[6-[5-[6-[4-[2-(2,6-dioxo-3-piperidyl)-1-oxo-isoindolin-5-yl]piperazin-1-yl]-6-oxo-hexyl]-1,2,4-oxadiazol-3-yl]-5-methyl-3-pyridyl]-3-(7-tetrahydrofuran-2-ylpyrazolo[1,5-a]pyrimidin-6-yl)urea]	–
–	–	≤ 0.2	O=C1CCC(N2Cc3cc(N4CCN(C(=O)CCCCCc5nc(-c6ncc(NC(=O)Nc7cnc8ccnn8c7C7CCCCC7)cc6Cl)no5)CC4)ccc3C2=O)C(=O)N1 (centres unmarked) [Compound 118, 1-[5-chloro-6-[5-[6-[4-[2-(2,6-dioxo-3-piperidyl)-1-oxo-isoindolin-5-yl]piperazin-1-yl]-6-oxo-hexyl]-1,2,4-oxadiazol-3-yl]-3-pyridyl]-3-(7-cyclohexylpyrazolo[1,5-a]pyrimidin-6-yl)urea]	< 500
